Results on 5 molecules are retold here after patent US20260183274A1, “PDK1 REGULATORY COMPOUND AND COMPOSITION CONTAINING THE SAME” (PROVIBIO CO., LTD., priority 2024, published 2026).

The test system of series [1] is T cells isolated from mouse spleens. Nature of the series: T cell proliferation inhibition (CFSE flow cytometry, anti-CD3/anti-CD28 stimulation). It is filed as cell-based. The following applies: mouse spleen T cells, 3 days; for inhibition at 0.01 µM / inhibition at 0.1 µM / inhibition at 1 µM / inhibition at 10 µM / inhibition at 30 µM / inhibition at 50 µM: Mus musculus, T-cell, 72 h, read-out: Proliferation inhibition rate (%). An outline of the steps:
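Splenic T cells from 7-week-old C57BL/6 mice were MACS-isolated, CFSE-labelled, seeded at 2×10^5 cells/well and activated with anti-CD3/anti-CD28 (0.5 μg/mL each). Compound at 10 nM–50 μM (six levels, triplicate) was present for 3 days at 37 °C before flow cytometric readout of proliferation inhibition rate.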
(In flow cytometry, cells or beads pass a laser one at a time.)

The subject of series [2] is Human B Lymphocyte cell line, SU-DHL-8. In words: Relative cell viability CCK-8, SU-DHL-8. The format is cell-based. The following applies: for viability at 1 µM / viability at 10 µM / viability at 30 µM / viability at 50 µM: Homo sapiens, SU-DHL-8, 48 h; for viability at 1 µM: read-out: Relative cell viability (%), SU-DHL-8, 1 μM; for viability at 10 µM: read-out: Relative cell viability (%), SU-DHL-8, 10 μM; for viability at 30 µM: read-out: Relative cell viability (%), SU-DHL-8, 30 μM; for viability at 50 µM: read-out: Relative cell viability (%), SU-DHL-8, 50 μM. An outline of the steps: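 Cells grown in RPMI-1640 with 10% FBS, treated with compound at several concentrations, then given CCK-8 for 4 h at 37° C. Viability expressed as percent of DMSO-treated cells.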

Series [3] has as its system Human Colorectal Carcinoma cell line, HCT-116. Nature of the series: Relative cell viability CCK-8, HCT-116. The following applies: Homo sapiens, HCT-116, 48 hours. The format is cell-based. On the procedure: (§1) Human-derived breast cancer cell line MCF-7, human-derived lung cancer cell line A549, human-derived colorectal cancer cell line HCT-116, human pancreatic cancer cell line AsPC-1, glioblastoma cell line A172, and melanoma cell line Malme-3M were obtained from the Korean Cell Bank. gastric cancer cell line SNU-719, and bladder cancer cell line T24 were cultured in RPMI-1640 medium containing 10% FBS.
(§2) Following stabilization, the cells were harvested using Trypsin-EDTA treatment, centrifuged at 1,200 rpm for 3 minutes, the supernatant was removed, and the cells were resuspended in the same medium. They were then seeded into a 96-well plate (Costar 96-well cell culture plate, Corning) at 100 μL per well, and the conditions were adjusted as indicated in Table 5.
(§3) The cells were cultured in a 5% CO2 incubator at 37° C. for 24 hours, and after stabilization of the cells, each plate was washed with 200 μL of PBS per well and treated with 50 μL of culture medium per well.
(§4) After that, 10 μL of CCK-8 was added to each well, and the plate was incubated again at 37° C. in a 5% CO2 incubator for 2 hours.
(§5) In other words, when the survival rate of untreated cells (DMSO) is set at 100%, the relative cell survival rate in each group treated with the drug at different concentrations is indicated.

Series [4] concerns Human Gastric cancer cell, SNU-719. Nature of the series: Relative cell viability CCK-8, SNU-719. The format is cell-based. The following applies: 48 hours. How it is done: as §1, §2, §3, §4, §5
Series [5] concerns HCT-116 colon cancer cell lines. In words: Matrigel Invasion Assay, HCT-116. It is filed as cell-based, human. Particulars: 24 hours treatment, FIG. 30. On the procedure:
To evaluate the metastasis inhibitory efficacy of the compounds of the present invention on HCT-116 colon cancer cell lines, an Invasion Assay using Matrigel was performed to assess the cells' invasion ability.
First, Matrigel was thawed on ice in RPMI-1640 medium without FBS, then diluted with DMEM at a ratio of 1:20.
The diluted Matrigel mixture was applied to the upper chamber at 100 μl per well, and 750 μl of RPMI-1640 without FBS was added to the lower chamber.
The plates were then incubated at 37° C. for 1 hour to allow the Matrigel to solidify.
After coating, the Matrigel mixture in the upper chamber was removed using a pipette, and the chamber was washed with RPMI without FBS.
Human-derived colorectal cancer cell line HCT-116, obtained from the Korean Cell Bank, was cultured in RPMI-1640 medium containing 10% FBS.
Following stabilization, the cells were harvested using Trypsin-EDTA treatment, centrifuged at 1,200 rpm for 3 minutes, the supernatant was removed, and the cells were resuspended in the same medium, the medium in the lower chamber was replaced with 750 μl of RPMI-1640 supplemented with 10% FBS, and the cells were seeded into the upper chamber at a density of 5×10^4 cells/well.
The cells were cultured for 24 hours after attachment, and then the compounds according to the present invention (G078, G085, G086, G088, G089, PBK-2024-010, PBK-2025-010, PBK-2025-013, PBK-2025-016) and the control substance DMSO were diluted and added to the upper chamber after removing the medium.
Additionally, the medium in the lower chamber was replaced with fresh RPMI-1640 containing FBS, and the culture was continued.
After an additional 24 hours, the medium was removed, and 1 ml of methanol was added for 10 minutes to fix the cells.
Subsequently, 1 ml of Hematoxylin was added and reacted for 5 minutes, followed by 1 ml of Eosin, which was reacted for 30 seconds. The sample was then washed with distilled water (DW).
After staining was complete, any remaining cells in the upper chamber were removed. Finally, the infiltrated cells were observed under a microscope, photographed, and the degree of infiltration was analyzed.

For series [6], the system named is Human Pancreas Adenocarcinoma cell line, AsPC-1. In words: Relative cell viability CCK-8, AsPC-1. The format is cell-based. The following applies: 48 hours; for viability at 1 µM: ASPC1, 1 μM; for viability at 10 µM: ASPC1, 10 μM; for viability at 30 µM: ASPC1, 30 μM; for viability at 50 µM: ASPC1, 50 μM. On the procedure: as §1, §2, §3, §4, §5
Series [7] has as its system Human Bladder cancer cell, T24. In words: Relative cell viability CCK-8, T24. The format is cell-based. Particulars: Homo sapiens, 48 h. On the procedure:
as §1, §2, §3, §4, §5

Where [8] appears, read: 48 hours, untreated (DMSO) = 100%.

In general, viability refers to the share of living cells, or the viability signal relative to a control. As for `Nc1ncccc1C(=O)NCCCCCCCCCCCCN1CC(F)C1` [Compound 52, 2-Amino-N-(12-(3-fluoroazetidin-1-yl)dodecyl)nicotinamide], the inhibition at 0.01 µM in series [1] (compound 10 nM) was determined as 11.3%. In addition, in series [1] (compound 100 nM), the inhibition at 0.1 µM was determined as 13.8%. Also, the inhibition at 1 µM in series [1] (compound 1 μM) came to 100%. In series [1] (compound 10 μM), the inhibition at 10 µM stood at 100%. In addition, the inhibition at 30 µM in series [1] (compound 30 μM) worked out at 100%. Also, the inhibition at 50 µM in series [1] (compound 50 μM) was determined as 100%. The viability at 1 µM in series [2] (setting [8]) was determined as 14.2%; in series [3], 33.6%; in series [4] (1 μM), 41.2%. The viability at 10 µM turned out to be 11.6% in series [2] (setting [8]), 13.3% in series [3] and 35.9% in series [4] (10 μM). Also, the viability at 30 µM is 10.1% in series [2] (setting [8]), 12.7% in series [3] and 35.5% in series [4] (30 μM). Besides, the viability at 50 µM in series [2] (setting [8]) stood at 9.15%; in series [3], 11.8%; in series [4] (50 μM), 35%. The “Number of infiltrated cells (invasion)” value in series [5] is listed as “reduction in the number of infiltrated cells”.

As for `CC(C)(C)OC(=O)N[C@H]1CCN(CCCCCCCCCCCCNC(=O)c2cccnc2N)C1` [Compound 49, tert-Butyl(S)-(1-(12-(2-aminonicotinamido)dodecyl)pyrrolidin-3-yl) carbamate], the “Proliferation inhibition rate (%)” value in series [1] (compound 10 nM) is listed as −22.61%; in series [1] (compound 100 nM), 100.00%; in series [1] (compound 1 μM), 100.00%; in series [1] (compound 10 μM), 100.00%; in series [1] (compound 30 μM), 100.00%; in series [1] (compound 50 μM), 100.00%. The “Relative cell viability (%), SU-DHL-8” value in series [2] (1 μM, 48 hours, untreated (DMSO) = 100%) is 8.93%; in series [2] (10 μM, 48 hours, untreated (DMSO) = 100%), 8.02%; in series [2] (30 μM, 48 hours, untreated (DMSO) = 100%), 7.48%; in series [2] (50 μM, 48 hours, untreated (DMSO) = 100%) it was 4.09%. For the same molecule, in series [5], the “Number of infiltrated cells (invasion)” value is “reduction in the number of infiltrated cells”.

In the case of `Nc1ncccc1C(=O)NCCCCCCCCCCCCN1CCSC1` [Compound 31, 2-Amino-N-(12-(thiazolidin-3-yl)dodecyl)nicotinamide], in series [1] (compound 10 nM), the inhibition at 0.01 µM was 8.01%. Moreover, the inhibition at 0.1 µM in series [1] (compound 100 nM) came out at 77.2%. Besides, the inhibition at 1 µM in series [1] (compound 1 μM) worked out at 100%. Further, the inhibition at 10 µM in series [1] (compound 10 μM) is 100%. The inhibition at 30 µM in series [1] (compound 30 μM) amounted to 100%. Besides, in series [1] (compound 50 μM), the inhibition at 50 µM was 100%. The viability at 1 µM in series [2] (setting [8]) was determined as 5.57%; in series [3], 11.6%; in series [6], 40.8%; in series [7] (1 μM), 7.59%. In addition, the viability at 10 µM in series [2] (setting [8]) was 4.36%; in series [3], 13.2%; in series [6] it was 41%; in series [7] (10 μM), 7.06%. In addition, the viability at 30 µM worked out at 1% in series [2] (setting [8]), 12.3% in series [3], 39.4% in series [6] and 7.58% in series [7] (30 μM). For the same molecule, the viability at 50 µM in series [2] (setting [8]) came out at 0.23%; in series [3] it was 12%; in series [6] it was 36.6%; in series [7] (50 μM), 6.92%.

Turning to “12-(4-hydroxypiperazin-1-yl)dodecyl-N-(6-aminopurazin-2-yl) carboxamide [Compound 10]”, the “Proliferation inhibition rate (%)” value in series [1] (compound 10 nM), in series [1] (compound 100 nM), in series [1] (compound 1 μM), in series [1] (compound 10 μM), in series [1] (compound 30 μM) and in series [1] (compound 50 μM) was 100.00% in each case. The “Number of infiltrated cells (invasion)” value in series [5] was “reduction in the number of infiltrated cells”.

For the molecule `Nc1ncccc1C(=O)NCCCCCCCCCCCCN1CCc2ccccc21` [Compound 89, 2-Amino-N-(12-(indolin-1-yl)dodecyl)nicotinamide], in series [1] (compound 10 nM), the inhibition at 0.01 µM is -3.34%. In addition, the inhibition at 0.1 µM in series [1] (compound 100 nM) was found to be 100%. For the same molecule, the inhibition at 1 µM in series [1] (compound 1 μM) came out at 100%. In addition, in series [1] (compound 10 μM), the inhibition at 10 µM amounted to 100%. The inhibition at 30 µM in series [1] (compound 30 μM) was determined as 100%. Further, the inhibition at 50 µM in series [1] (compound 50 μM) amounted to 100%. For the same molecule, in series [2] (setting [8]), the viability at 1 µM turned out to be 1.33%, the viability at 10 µM came to 0.82% and the viability at 30 µM was determined as 0.48%. Moreover, the “Relative cell viability (%), SU-DHL-8” value in series [2] (human, 48 h, 50 µM) is given as −0.86%. For the same molecule, in series [6], the viability at 1 µM was 30.3%, the viability at 10 µM came to 19.2%, the viability at 30 µM was determined as 17.8% and the viability at 50 µM came out at 17.8%.
